Data from US10918108B2, “Synergistic herbicidal composition” (JIANGSU ROTAM CHEMISTRY CO., LTD, priority 2016, dated 2021).

System: gramineous weeds, broadleaf weeds and sedge weeds
Experiment: Weed control efficacy, greenhouse pot test, survival rate compared with Colby value (Table 1)
Format: in vivo
Description: The desired efficacy of the combination of three active compounds can be calculated through “Colby formula” as follows (S. R. Colby, “Calculating Synergistic and Antagonistic Responses of Herbicide Combinations, Weeds 1967, 15, 20-22): if
A is the activity of active compound A when used in an amount of mg/ha or concentrate of mppm, expressed as a percentage of untreated control;
B is the activity of active compound B when used in an amount of ng/ha or concentrate of nppm, expressed as a percentage of untreated control;
C is the activity of active compound C when used in an amount of hg/ha or concentrate of hppm, expressed as a percentage of untreated control;
E0 is the anticipated activity of active compounds A, B and C when used in an amount of m, n, h g/ha or concentrate of m, n, h ppm, E0=A×B×C/(100^(N-1)) N=3;
If the observed actual activity E is greater than the anticipated activity (E0), then the composition has synergistic effect.
If the observed actual efficiency of weed control (E) through the biology test is greater than the anticipated value (E0) as calculated via Colby's equation, then it represents that the efficacy of herbicidal composition is greater than the sum of efficacy of each component, which means the composition has synergistic effect.
Use stem and leaf treatment for potted grown plant(NY/T 1155.4-2006): fill a plastic pot (6 cm height, 9 cm diameter) with a quantity of soil and sow 15 to 20 seeds of monocotyledonous weeds and dicotyledonous weeds in the plastic pot, cover it with 0.5 to 1 cm thick of fine soil and then put it in greenhouse for cultivation. When weeds grow to the 2 to 4 leave stage, conduct the stem and leaf spray treatment with 1 mL herbicidal solution on each pot and repeat four times for each treatment and leave some pots untreated as control group. Keep the treated pots in a greenhouse for cultivation and observe the growing status of target weeds periodically. Conduct the visual test on the target weeds regarding the damage symptoms and growth inhibition effect after 21 days. Weigh up the fresh weight above the ground or plant fresh weight and evaluate the toxicity of the herbicidal formulation on target weeds based on the fresh weight inhibition rate of the target.
Prepare the following formulations according to specific weight percentages: 1. Pyroxasulfone; 2. Mesotrione; 3 Atrazine; 4. Pyroxasulfone+Mesotrione; 5. Pyroxasulfone+Atrazine; 6. Mesotrione+Atrazine; 7. Pyroxasulfone+Mesotrione+Atrazine. After that, dilute above formulations with water to obtain diluted formulations.
Conduct visual assessment the damage symptom and growth inhibition status of target weeds after 21 days. Weigh up the fresh weight above the ground and calculate the inhibition rate of fresh weight (%).
Anticipated effects of the special combined three active components can be calculated through so called “Colby formula”. If the actual efficiency of weed control observed during the biology test exceeds the anticipated value […] calculated by Colby's formula, then it represents that the efficacy of herbicidal composition is greater than the sum of efficacy of each component, which means the composition has synergistic effect.
The synergistic herbicidal composition of present invention has conducted test on the following important harmful plants (gramineous weeds, broadleaf weeds, sedge weeds) with wide herbicidal spectrum: Echinochloa oryzicola, Digitaria spp., Stellaria media, Amaranthus retroflexus, Fallopia(ex Polygonum) Convolvulus, Abuthilon theophrasti, Sagittariatrifolia, Oriental Waterplantain Rhizome, Herb of Pygmy Arrowhead, Monochoria korsakowii, Lindernia procumbens, Solanum nigrum L., Scirpus juncoides Roxb, Cyperus difformis L., Chenopodium alum L., Avena fatua L. and Galium aparine L. var. tenerum Gren. et (Godr.) Rebb.

Cn1nc(C(F)(F)F)c(CS(=O)(=O)C2=NOC(C)(C)C2)c1OC(F)F [Pyroxasulfone, 3-[5-(difluoromethoxy)-1-methyl-3-(trifluoromethyl)pyrazol-4-ylmethylsulfonyl]-4,5-dihydro-5,5-dimethyl-1,2-oxazole]
Actual survival rate (%) (application rate 1 g/ha): 89%
Actual survival rate (%) (application rate 5 g/ha): 78%
Actual survival rate (%) (application rate 10 g/ha): 60%

CCNc1nc(Cl)nc(NC(C)C)n1 [Atrazine, 2-chloro-4-ethylamino-6-isopropylamino-1,3,5-triazine]
Actual survival rate (%) (application rate 1 g/ha): 100%
Actual survival rate (%) (application rate 50 g/ha): 100%
Actual survival rate (%) (application rate 100 g/ha): 67%

CS(=O)(=O)c1ccc(C(=O)C2C(=O)CCCC2=O)c([N+](=O)[O-])c1 [Mesotrione, 2-(4-mesyl-2-nitrobenzoyl)cyclohexane-1,3-dione]
Actual survival rate (%) (application rate 1 g/ha): 100%
Actual survival rate (%) (application rate 25 g/ha): 87%
Actual survival rate (%) (application rate 50 g/ha): 74%
